What was measured:
[1] = test system: A549 cells (human lung cancer cell line); test: MTT cytotoxicity assay, A549; type: cell-based; details: mean ± SEM
Experimental: (§1) Cell cultures were obtained from the human lung cancer cell line (A549), human cervical cancer cell line (Hela), human breast cancer cell line (MCF-7) and Normal cells isolated from human lung tissue (MRC-5) taken from the National Cell Bank of Iran (NCBI, Pasteur Institute, Tehran, Iran). All cells were cultured in RPMI-1640 medium supplemented with 10% FBS, antibiotics (penicillin 100 U/mL, streptomycin 100 µg/mL), at 37 °C in a humidified atmosphere containing 5% CO2.
(§2) Cytotoxic activities of all the synthesized compounds were assessed by standard 3-(4,5-dimethylthiazol-yl)-2,5-diphenyl-tetrazolium bromide (MTT) assay. The assay was performed according to a known protocol. The cells were seeded and plated in 96-well microplates at a density of 1 × 10^4 cells per well in 180 μL complete culture media. After 24 h incubation, the cells were treated with […] of different concentrations of synthesized compounds ranging from 1 × 10^–4 to 1 × 10^–7 M at identical conditions in triplicates. After 72 h, media were replaced with 150 μL media containing 0.5 mg/mL of MTT solution [57]. The plates were incubated at 37 °C for additional four hours. Then, media containing MTT were discarded and 150 μL dimethylsulfoxide (DMSO, > 99%) was added to each well to dissolve the formazan crystals.

[2] = test system: MRC-5 cells (normal cells from human lung tissue); test: MTT cytotoxicity assay, MRC-5 normal cell line (safety); type: cell-based; details: mean ± SEM
Experimental: as §1, §2

[3] = test system: Hela cells (human cervical cancer cell line); test: MTT cytotoxicity assay, Hela; type: cell-based; details: 72 h, mean ± SEM
Experimental: as §1, §2

[4] = test system: MCF-7 cells (human breast cancer cell line); test: MTT cytotoxicity assay, MCF-7; type: cell-based; details: mean ± SEM
Experimental: as §1, §2

Row | SMILES | melting point | IC50 ([1]; Homo sapiens, A549, 72 h) | IC50 ([2]; Homo sapiens, MRC5, 72 h) | IC50 ([3]; Homo sapiens, HeLa) | IC50 ([4]; Homo sapiens, MCF7, 72 h) | IC50 [3] | IC50 ([1]; 72 h) | IC50 ([2]; 72 h) | IC50 ([4]; 72 h)
1 | O=C(c1ccccc1)C(c1ccccc1)C(C(=O)c1ccc(F)cc1)n1cncn1 (stereo not shown) [10 g, 1-(4-fluorophenyl)-3,4-diphenyl-2-(1H-1,2,4-triazol-1-yl) butane-1,4-dione] | 154 to 157 °C | 150 ± 4.9 µM | 257 ± 4.3 µM | 128 ± 6.1 µM | 93 ± 3.1 µM | – | – | – | –
2 | O=C(c1ccc(Br)cc1)C(C(c1ccccc1)c1ccccc1)n1cncn1 (stereo not shown) [Compound 7d, 1-(4-bromophenyl)-3,3-diphenyl-2-(1H-1,2,4-triazol-1-yl) propan-1-one] | 110 to 113 °C | 43.4 ± 4.5 µM | 35.6 ± 2.7 µM | < 12 µM | 9.8 ± 0.9 µM | 12.1 ± 3.6 µM | – | – | –
3 | O=C(c1ccccc1)C(Cc1ccccc1)n1cncn1 (stereo not shown) [Compound 7a, 1,3-diphenyl-2-(1H-1,2,4-triazol-1-yl) propan-1-one] | 145 to 148 °C | 150 ± 5.3 µM | > 300 µM | 92.4 ± 7.3 µM | 154 ± 5.8 µM | – | – | – | –
4 | N.N.[Cl][Pt][Cl] [Cis platin, reference compound] | – | – | – | – | – | 12.3 ± 3.3 µM | 14.8 ± 0.27 µM | 45.2 ± 2.5 µM | 36.5 ± 1.9 µM
5 | O=C(c1ccccc1)C(c1ccccc1)C(C(=O)c1ccc(Cl)cc1)n1cncn1 (stereo not shown) [10 h, 1-(4-chlorophenyl)-3,4-diphenyl-2-(1H-1,2,4-triazol-1-yl) butane-1,4-dione] | 174 to 176 °C | 112 ± 10.8 µM | 249 ± 5.8 µM | 172 ± 7.1 µM | 89 ± 5.2 µM | – | – | – | –
6 | O=C(c1ccc(Cl)cc1Cl)C(C(c1ccccc1)c1ccccc1)n1cncn1 (stereo not shown) [Compound 7e, 1-(2,4-dichlorophenyl)-3,3-diphenyl-2-(1H-1,2,4-triazol-1-yl) propan-1-one] | 118 to 121 °C | 9.4 ± 1.8 µM | 27.8 ± 3.7 µM | – | 4.7 ± 1.4 µM | – | – | – | –
7 | O=C(c1ccc(Cl)cc1)C(C(c1ccccc1)c1ccccc1)n1cncn1 (stereo not shown) [Compound 7c, 1-(4-chlorophenyl)-3,3-diphenyl-2-(1H-1,2,4-triazol-1-yl) propan-1-one] | 140 to 142 °C | 177 ± 5.9 µM | 201 ± 9.5 µM | 81.7 ± 6.3 µM | 60 ± 4.9 µM | – | – | – | –
8 | O=C(c1ccccc1)C(c1ccccc1)C(C(=O)c1ccc(Cl)cc1Cl)n1cncn1 (stereo not shown) [10 k, 1-(2,4-dichlorophenyl)-3,4-diphenyl-2-(1H-1,2,4-triazol-1-yl) butane-1,4-dione] | 178 to 181 °C | 102 ± 5.2 µM | 148 ± 6.1 µM | 121 ± 6.8 µM | 44.1 ± 7.6 µM | – | – | – | –
9 | O=C(c1ccc(Cl)cc1Cl)C(Cc1ccccc1)n1cncn1 (stereo not shown) [Compound 7b, 1-(2,4-dichlorophenyl)-3-phenyl-2-(1H-1,2,4-triazol-1-yl) propan-1-one] | 121 to 123 °C | 75.8 ± 4.6 µM | 72.6 ± 3.4 µM | 7.9 ± 3.1 µM | 23.4 ± 2.6 µM | – | – | – | –

Second part, led by results:

Row | melting point | SMILES | IC50 ([1]; Homo sapiens, A549, 72 h) | IC50 ([2]; Homo sapiens, MRC5, 72 h) | IC50 ([3]; Homo sapiens, HeLa) | IC50 ([4]; Homo sapiens, MCF7, 72 h) | IC50 [3] | IC50 ([1]; 72 h) | IC50 ([2]; 72 h) | IC50 ([4]; 72 h)
10 | 168 to 171 °C | O=C(c1ccccc1)C(c1ccccc1)C(C(=O)c1ccc(Br)cc1)n1cncn1 (stereo not shown) [Compound 10i, 1-(4-bromophenyl)-3,4-diphenyl-2-(1H-1,2,4-triazol-1-yl) butane-1,4-dione] | 135 ± 5.3 µM | 218 ± 3.2 µM | 59.3 ± 2.7 µM | 72.2 ± 6.5 µM | – | – | – | –
11 | 81 to 83 °C | c1ccc(CC(Cc2ccccc2)n2cncn2)cc1 [Compound 8a, 1-(1,3-diphenylpropan-2-yl)-1H-1,2,4-triazole] | 127 ± 4.9 µM | 279.1 ± 2.5 µM | 142 ± 2.1 µM | 158 ± 3.5 µM | – | – | – | –
12 | 93 to 96 °C | Clc1ccc(CC(C(c2ccccc2)c2ccccc2)n2cncn2)cc1 (stereo not shown) [Compound 8b, 1-(3-(4-chlorophenyl)-1,1-diphenylpropan-2-yl)-1H-1,2,4-triazole] | 124 ± 3.4 µM | 279 ± 2.8 µM | 198 ± 5.5 µM | 178 ± 2.5 µM | – | – | – | –
13 | 131 to 133 °C | O=C(CC(C(=O)c1ccc(Cl)cc1)n1cncn1)c1ccccc1 (stereo not shown) [Compound 10b, 1-(4-chlorophenyl)-4-phenyl-2-(1H-1,2,4-triazol-1-yl) butane-1,4-dione] | 110 ± 1.3 µM | 259 ± 8.3 µM | 48.3 ± 4.1 µM | 62.6 ± 2.5 µM | – | – | – | –
14 | 88 to 91 °C | Brc1ccc(CC(C(c2ccccc2)c2ccccc2)n2cncn2)cc1 (stereo not shown) [Compound 8c, 1-(3-(4-bromophenyl)-1,1-diphenylpropan-2-yl)-1H-1,2,4-triazole] | 104 ± 7.3 µM | 104 ± 7.3 µM | 79.1 ± 2.5 µM | 52.8 ± 7.4 µM | – | – | – | –
15 | 149 to 151 °C | O=C(CC(C(=O)c1ccc(Br)cc1)n1cncn1)c1ccccc1 (stereo not shown) [Compound 10c, 1-(4-bromophenyl)-4-phenyl-2-(1H-1,2,4-triazol-1-yl) butane-1,4-dione] | 104 ± 1.3 µM | 57.8 ± 1.7 µM | 32.4 ± 6.9 µM | 17.3 ± 5.4 µM | – | – | – | –
16 | 162 to 165 °C | O=C(CC(C(=O)c1ccc(Br)cc1)n1cncn1)c1ccc(Cl)cc1 (stereo not shown) [Compound 10d, 1-(4-bromophenyl)-4-(4-chlorophenyl)-2-(1H-1,2,4-triazol-1-yl) butane-1,4-dione] | 16.5 ± 2.6 µM | 42.8 ± 2.1 µM | < 12 µM | 10.2 ± 2.1 µM | 9.8 ± 1.7 µM | – | – | –
17 | 115 to 118 °C | O=C(CC(C(=O)c1ccccc1)n1cncn1)c1ccccc1 (stereo not shown) [Compound 10a, 4-diphenyl-2-(1H-1,2,4-triazol-1-yl) butane-1,4-dione] | 21.1 ± 4.2 µM | 21.7 ± 1.5 µM | – | 6.43 µM | – | – | – | 6.4 ± 1.7 µM
18 | 185 to 188 °C | O=C(c1ccccc1)C(c1ccccc1)C(C(=O)c1ccccc1)n1cncn1 (stereo not shown) [Compound 10f, 4-triphenyl-3-(1H-1,2,4-triazol-1-yl) butane-1,4-dione] | 114 ± 7.6 µM | 289 ± 10.2 µM | 82.7 ± 5.8 µM | 134 ± 4.5 µM | – | – | – | –
19 | 153 to 156 °C | O=C(CC(C(=O)c1ccc(Cl)cc1Cl)n1cncn1)c1ccccc1 (stereo not shown) [Compound 10e, 1-(2,4-dichlorophenyl)-4-phenyl-2-(1H-1,2,4-triazol-1-yl) butane-1,4-dione] | 104 ± 5.9 µM | 104 ± 7.3 µM | 31.6 ± 4.2 µM | 45.4 ± 6.5 µM | – | – | – | –
20 | 114 to 117 °C | O=C(c1ccccc1)C(c1ccccc1)C(C(=O)c1ccc(F)cc1F)n1cncn1 (stereo not shown) [Compound 10j, 1-(2,4-difluorophenyl)-3,4-diphenyl-2-(1H-1,2,4-triazol-1-yl) butane-1,4-dione] | 101 ± 1.8 µM | 101 ± 1.3 µM | 12.3 ± 1.9 µM | 45.4 ± 3.2 µM | – | – | – | –
